According to patent US11963966B2, “Compositions and methods for treating ovarian tumors” (Dana-Farber Cancer Institute, Inc., priority 2017, dated 2024):
pEC50: −log10 of the molar value. Entries after “also recorded” stand apart in the source; their conditions may differ. Like-named read-outs stand apart in the source and are kept apart here.

Key:
Assay type in all cases: cell-based
[1] = system: patient ascites-derived spheroids; assay: Mesothelial clearance (invasion through mesothelial monolayer); details: pre-treatment 30 or 120 minutes followed by drug removal
Protocol: (§1) FIG. 6A-FIG. 6G are a series of graphs and images depicting the impact of JAK/STAT-inhibition on spheroid formation, invasion and killing ex vivo and in vitro. FIG. 6A a histogram (FIG. 11B), showing drug screening with 14 compounds (at 1 μM) inhibiting the JAK/STAT pathway in OVACR4. Relative viability compared to DMSO control measured by CTG. […] The same library was screened in 2D-cultures of OVACR4 (FIG. 11A), and 2D-cultures of OVACR8 (FIG. 11C) and 3D-cultures of OVACR8 (FIG. 11D). FIG. 6B is a series of plots showing drug sensitivity testing using the GILA assay in platinum-resistant ex vivo spheroid cultures of patients DF3291 and DF3266, The X-axis indicates the log μM concentration of drugs indicated in the legend, Y-axis indicates the percentage of luminescence signal as indicator for viability relatively to DMSO treated cells. In both patients, half maximal effective concentration (EC50) were ˜100 nM and ˜10 nM, respectively, while other drugs routinely used for the treatment of (platinum-resistant) ovarian cancer had EC50>10 μM. FIG. 6C is a series of images of microscopic analysis of spheroids with different drug treatments to highlight the morphologic changes during therapy with drugs listed. Inhibition of JAK/STAT pathway disrupts ex vivo spheroid cultures. […] 20 spheroids clusters were analyzed for each iteration. […]

[2] = system: spheroids of ovarian cancer cell lines OVCAR8 and TKYNU; assay: as above; details: treatment 30 minutes followed by drug removal
Protocol: as §1

[3] = system: platinum-resistant ex vivo spheroid cultures of patients DF3266, DF3288, DF3291; assay: Drug sensitivity testing with the growth in low attachment (GILA) assay
Protocol: (§2) FIG. 6A-FIG. 6G are a series of graphs and images depicting the impact of JAK/STAT-inhibition on spheroid formation, invasion and killing ex vivo and in vitro. FIG. 6A a histogram (FIG. 11B), showing drug screening with 14 compounds (at 1 μM) inhibiting the JAK/STAT pathway in OVACR4. Relative viability compared to DMSO control measured by CTG. […] The same library was screened in 2D-cultures of OVACR4 (FIG. 11A), and 2D-cultures of OVACR8 (FIG. 11C) and 3D-cultures of OVACR8 (FIG. 11D). FIG. 6B is a series of plots showing drug sensitivity testing using the GILA assay in platinum-resistant ex vivo spheroid cultures of patients DF3291 and DF3266, The X-axis indicates the log μM concentration of drugs indicated in the legend, Y-axis indicates the percentage of luminescence signal as indicator for viability relatively to DMSO treated cells. In both patients, half maximal effective concentration (EC50) were ˜100 nM and ˜10 nM, respectively, while other drugs routinely used for the treatment of (platinum-resistant) ovarian cancer had EC50>10 μM. FIG. 6C is a series of images of microscopic analysis of spheroids with different drug treatments to highlight the morphologic changes during therapy with drugs listed. Inhibition of JAK/STAT pathway disrupts ex vivo spheroid cultures. […] The X-axis indicates established ovarian cancer cell line ID. Y-axis indicates the relative number of formed spheroids when treated with either JSI-124 or carboplatin compared to untreated parental controls. Error bars indicate the standard deviation from the mean number of spheroids. […] JAK/STAT inhibition prevents spheroid formation. […] The Y-axis indicates the clearance ability (using arbitrary units). 20 spheroids clusters were analyzed for each iteration. Data is shown as mean (horizontal bar), interquartile range (box), and minimum and maximum (whiskers). Statistical analysis was performed using 1-way analysis of variance (ANOVA) and post hoc Tukey-Kramer **P<0.05. […] FIG. 6G is a histogram showing the inhibition of the JAK/STAT pathway.
Single-cell RNA-sequencing was performed on these platinum-resistant patient samples, using the growth in low attachment (GILA) assay (Rotem et al., 2015 Proc. Natl. Acad. Sci. U.S.A, 112:5708-5713; B. Izar and A. Rotem, 2016 Curr. Protoc. Mol. Biol., 116:28.8.1-28.8.12). […] In contrast, all spheroid cultures were resistant to carboplatin, cisplatin, olaparib and paclitaxel at a similar dose range, with the exception of cisplatin with an EC50 of ˜10 μM in patients DF3266 and DF3288.

OVACR8 = assay: Screen of 14 JAK/STAT pathway inhibitors, CellTiterGlo viability, 2D and 3D cultures; details: OVACR8, 1 μM, 2D and 3D culture
Protocol: as §1, with “μM.” for “μM. FIG. 6C is a series of images of microscopic analysis of spheroids with different drug treatments to highlight the morphologic changes during therapy with drugs listed. Inhibition of JAK/STAT pathway disrupts ex vivo spheroid cultures.”
FIG. 11A-FIG. 11E are a series of histograms of OVACR4 and OVACR8 ovarian cancer cell lines grown in 2D and 3D cultures and treated with 14 JAK/STAT pathway inhibitors at 1 μM. Vability of the cells was determined using the CellTiterGlo assay. […]

[4] = system: established ovarian cancer cell lines (OVCAR4, OVCAR8, OVASHO, TYKNU, Kuramachi); assay: Spheroid formation in low adherent surface culture
Protocol: as §2, with “pathway. […]” for “pathway.”

[5] = system: ex vivo patient-derived ovarian cancer spheroids; assay: Microscopic analysis of patient-derived spheroids/cells after drug treatment
Protocol: as §1

[6] = system: cells from abdominal ascites of ovarian patient NACT14; assay: Sensitivity of patient-derived ovarian cells in a microfluidic device; details: 10 μM, ~800 cells in 1 microliter, imaging 48 hours after drug
Protocol: Heterogeneous cell population isolated from abdominal ascites of ovarian patient NACT14. A limited number of cells (˜800 cells) in a volume of 1 microliter were tested for sensitivity of JSI124. On day 0, the cells were seeded in the microfluidic device. On day 1, drug was administered, together with a blue dye (FIG. 29-FIG. 31).
Hoechst confocal imaging (stained nuclei) was used to observe cells forty eight (48) hours after the drug was added (FIG. 32-FIG. 35).

CC(C)(O)/C=C/C(=O)[C@](C)(O)[C@H]1[C@@H](O)C[C@@]2(C)[C@@H]3CC=C4[C@H](C=C(O)C(=O)C4(C)C)[C@]3(C)C(=O)C[C@]12C [JSI-124, cucurbitacin I]
Ability to invade (clear) the mesothelial monolayer [1]: significantly reduced ability to invade the mesothelial monolayer; also recorded: unable to invade through the mesothelial monolayer | Ability to invade the mesothelium [2]: abolished their ability to invade the mesothelium; also recorded: unable to invade through the mesothelial monolayer | Emax ([3]; Homo sapiens): ≤ 99% | pEC50 ([3]; Homo sapiens, read-out: EC50 (viability, luminescence relative to DMSO), patient DF3266): ~8.00 | pEC50 ([3]; Homo sapiens, read-out: EC50 (viability, luminescence relative to DMSO), patient DF3291): ~7.00 | EC50 values, single-agent cytotoxic activity ([3]; all tested models (DF3266, DF3288, DF3291)): nanomolar ranges | Viability (CellTiterGlo), cell killing (OVACR8): most effective compound leading to cell killing | Number of spheroids vs DMSO control ([4]; Kuramachi): significantly reduced the number of spheroids | Formation of spheroids vs DMSO control ([4]; OVCAR4, OVCAR8, OVASHO, TYKNU): completely abrogated the formation of spheroids | Morphology of ex-vivo patient-derived ovarian cells after treatment ([5]; FIG. 36): massive elimination of tumor cells | Spheroid morphology / integrity ([5]; platinum-resistant ex vivo spheroids): disintegration of the solid 3D spheroid structure | Effectiveness against patient-derived ovarian cells [6]: Effective
